# Test results published in publication PMC5316400, “Validation of precision-cut liver slices to study drug-induced cholestasis: a transcriptomics approach” (Archives of Toxicology, 2016).
# What was measured:
# [1] = test system: Genes involved in unfolded protein response (UPR); experiment: Microarray gene expression in human PCLS exposed to cholestatic drugs: unfolded protein response genes; assay type: cell-based; details: 24 h, 60 μM bile acid mix
# Experimental: (§1) Precision-cut liver slices of 5 mm diameter and 250 μm thickness were prepared (de Graaf et al. [2010]). At this thickness, full penetration of substrates has been shown. PCLS were made using the Krumdieck tissue slicer (Alabama R&D, Munford, AL, USA) in ice-cold Krebs buffer at pH 7.42, enriched with glucose to a final concentration of 25 mM, saturated with carbogen (95 % O2/5 % CO2). Immediately after the slices were made, they were placed in ice-cold University of Wisconsin organ preservation solution (UW, Dupont Critical Care, Waukegan, IL, USA) and stored on ice until the beginning of the experiment. Slices were pre-incubated individually in 12-well plates in 1.3 ml of Williams Medium E with glutamax-1 (Gibco, Invitrogen, Paisley, Scotland) supplemented with 25 mM D-glucose and 50 μg/ml gentamycin (Gibco, Invitrogen, Paisley, Scotland). In the incubator (Sanyo CO2/O2 Incubator, PANASONIC, Secaucus, NJ, USA), the plates were gently shaken (90 times/min) for 1 h under 80 % O2 and 5 % CO2 atmosphere at 37 °C. This pre-incubation allows the slices to restore their ATP levels. […] The plates were incubated under the same conditions for 24 h. All incubation conditions were carried out in triplicate. Each experiment was performed in slices of 6 different human livers (Table 1). Slices were harvested for ATP assay in 100 mM Tris buffer with 2 mM EDTA and for RNA isolation in RNAlater. The bile acid mix was added to the medium in order to create an environment similar to the physiological concentration in the portal vein. The composition of the serum bile acids was according to Scherer et al. ([2009]). Pilot experiments were performed to find out the non-toxic concentration of the bile acid mix.
# (§2) Maxwell® 16 LEV Total RNA purification kit (Promega, The Netherlands) with Maxwell® 16 LEV Instrument was used to isolate RNA from the samples. Immediately after isolation, the RNA quality was assessed by measuring the 260/280 and 260/230 ratios, and the concentration was measured with the ND-1000 spectrophotometer (Fisher Scientific, Landsmeer, The Netherlands). The quality (RIN value) and quantity of the RNA were determined by high-throughput Caliper GX LabChip RNA kit (Caliper).
# (§3) Ambion Illumina Total Prep RNA kit was used to transcribe 300 ng RNA to cRNA according to the manufacturer’s instructions. A total of 750 ng of cRNA was hybridized at 58 °C for 16 h to the Illumina HumanHT-12 v4 Expression BeadChips. BeadChips were scanned using Iscan software, and IDAT files were generated (Illumina, San Diego, CA, USA).
# (§4) GenomeStudio software (Illumina) was used to read the IDAT files and generate raw expression values. The ArrayAnalysis web service (www.arrayanalysis.org/) was used for further preprocessing the data, which uses lumi R package (Eijssen et al. [2013]). Raw gene expression data were background-corrected (bgAdjust), variance-stabilized (VST) and normalized by quantile normalization. After normalization, the data were corrected for batch differences owing to RNA isolation and hybridization using the ComBat method implemented in the swamp package in R (Lauss et al. [2013]). Differentially expressed genes in slices exposed to the cholestatic drugs in the presence of bile acids versus the slices exposed to vehicle (DMSO) in the presence of bile acids were identified using the unpaired moderated t test in the limma package (Ritchie et al. [2015]). Genes that are regulated with a criterion of fold change of 1.5 (≤ or ≥1.5), and FDR-corrected p value ≤0.05 (Benjamini and Hochberg method) were chosen for pathway analysis. To compare our data with the scarcely available human in vivo data, human in vivo late-stage cholestasis data were downloaded from the Gene Expression Omnibus database (GSE46960).
# [2] = test system: human precision-cut liver slices (PCLS); experiment: Transcriptomics of human PCLS: differentially regulated genes; assay type: cell-based; details: fold change of 1.5 and adjusted p value 0.05, 24 h, 60 μM bile acid mix
# Experimental: as §1, §2, §3, §4
# [3] = adult patients, therapeutic dose, systemic blood; no reference given; cited from earlier work
# [4] = C max in systemic blood of adult patients after a therapeutic dose; details: highest toxic concentration tested in human PCLS vs C max in adult patients
# [5] = test system: Genes involved in the FXR pathway; experiment: Microarray gene expression in human PCLS exposed to cholestatic drugs: FXR pathway genes; details: 24 h, 60 μM bile acid mix
# Experimental: as §1, §2, §3, §4
# [6] = test system: Genes involved in hepatic cholestasis pathway; experiment: Microarray gene expression in human PCLS exposed to cholestatic drugs: hepatic cholestasis pathway genes; details: 24 h, 60 μM bile acid mix
# Experimental: as §1, §2, §3, §4
smiles,measurement,setting,value
"C[C@]12CCC(=O)C=C1CC[C@@H]1[C@@H]2CC[C@@]2(C)[C@H]1CC[C@]2(C)O [MT, methyl testosterone]",ATF4 fold change,[1]; 100 μM,1.2
same,DDIT3 (CHOP) fold change,[1]; 100 μM,2.9
same,DNAJB9 fold change,[1]; 100 μM,1.3
same,ERN1 fold change,[1]; 100 μM,3.0
same,HSPA9 fold change,[1]; 100 μM,1.3
same,HSPH1 fold change,[1]; 100 μM,1.7
same,INSIG1 fold change,[1]; 100 μM,−1.5
same,NFE2L2 fold change,[1]; 100 μM,−1.1
same,SYVN1 fold change,[1]; 100 μM,1.1
same,Number of regulated genes,[2]; 25 μM,11
same,Number of regulated genes,[2]; 50 μM,38
same,Number of regulated genes,[2]; 100 μM,233
same,Cmax,[3],130 nM
same,toxic concentration used in PCLS study relative to C max,[4],~ 770 × C max
same,ABCB4 fold change,[5]; 100 μM,−3.6
same,ABCB11 fold change,[5]; 100 μM,−1.7
same,ABCG5 fold change,[5]; 100 μM,−1.6
same,ABCG8 fold change,[5]; 100 μM,−1.4
same,APOC2 fold change,[5]; 100 μM,1.0
same,APOC4 fold change,[5]; 100 μM,−1.4
same,APOF fold change,[5]; 100 μM,1.1
same,BAAT fold change,[5]; 100 μM,−1.4
same,C3 fold change,[5]; 100 μM,−2.0
same,CYP8B1 fold change,[5]; 100 μM,1.1
same,CYP27A1 fold change,[5]; 100 μM,−1.5
same,FASN fold change,[5]; 100 μM,1.2
same,FBP1 fold change,[5]; 100 μM,1.2
same,FETUB fold change,[5]; 100 μM,−1.3
same,FGA fold change,[5]; 100 μM,1.9
same,ITIH4 fold change,[5]; 100 μM,−1.4
same,KNG1 fold change,[5]; 100 μM,−1.7
same,NR0B2 (SHP) fold change,[5]; 100 μM,1.3
same,NR1H3 (LXR) fold change,[5]; 100 μM,−1.0
same,NR1H4 (FXR) fold change,[5]; 100 μM,−1.2
same,PON1 fold change,[5]; 100 μM,1.1
same,RXRA fold change,[5]; 100 μM,−1.7
same,SCARB1 fold change,[5]; 100 μM,−1.6
same,SDC1 fold change,[5]; 100 μM,−1.8
same,SERPINF2 fold change,[5]; 100 μM,−1.2
same,SLC22A7 fold change,[5]; 100 μM,−1.5
same,SLC51B fold change,[5]; 100 μM,−2.8
same,SULT2A1 fold change,[5]; 100 μM,1.7
same,ABCB4 fold change,[6]; 100 μM,−3.6
same,ABCB11 fold change,[6]; 100 μM,−1.2
same,ABCC3 fold change,[6]; 100 μM,−1.8
same,ABCG5 fold change,[6]; 100 μM,−1.7
same,ABCG8 fold change,[6]; 100 μM,−1.4
same,CYP8B1 fold change,[6]; 100 μM,1.1
same,CYP27A1 fold change,[6]; 100 μM,−1.5
same,GCGR fold change,[6]; 100 μM,−1.1
same,IL1B fold change,[6]; 100 μM,−1.2
same,IL1RL1 fold change,[6]; 100 μM,3.5
same,IL1RN fold change,[6]; 100 μM,1.9
same,IRAK2 fold change,[6]; 100 μM,1.0
same,JUN fold change,[6]; 100 μM,1.6
same,NR0B2 fold change,[6]; 100 μM,1.0
same,NR1H3 fold change,[6]; 100 μM,−1.3
same,NR1H4 fold change,[6]; 100 μM,−1.1
same,PPRC1 fold change,[6]; 100 μM,1.1
same,RXRA fold change,[6]; 100 μM,−1.7
same,SLC22A7 fold change,[6]; 100 μM,−1.1
same,TNFRSF1B fold change,[6]; 100 μM,1.1
"S=C=Nc1cccc2ccccc12 [AN, Alpha-naphthylisothiocyanate]",ATF4 fold change,[1]; 75 μM,2.3
same,DDIT3 (CHOP) fold change,[1]; 75 μM,2.9
same,DNAJB9 fold change,[1]; 75 μM,2.7
same,ERN1 fold change,[1]; 75 μM,1.5
same,HSPA9 fold change,[1]; 75 μM,1.9
same,HSPH1 fold change,[1]; 75 μM,2.0
same,INSIG1 fold change,[1]; 75 μM,−2.5
same,NFE2L2 fold change,[1]; 75 μM,1.5
same,SYVN1 fold change,[1]; 75 μM,1.5
same,Number of regulated genes,[2]; 25 μM,2
same,Number of regulated genes,[2]; 50 μM,183
same,Number of regulated genes,[2]; 75 μM,458
same,ABCB4 fold change,[5]; 75 μM,−2.1
same,ABCB11 fold change,[5]; 75 μM,−1.8
same,ABCG5 fold change,[5]; 75 μM,−1.5
same,ABCG8 fold change,[5]; 75 μM,−2.3
same,APOC2 fold change,[5]; 75 μM,−1.8
same,APOC4 fold change,[5]; 75 μM,−1.8
same,APOF fold change,[5]; 75 μM,−1.9
same,BAAT fold change,[5]; 75 μM,−1.8
same,C3 fold change,[5]; 75 μM,−1.7
same,CYP8B1 fold change,[5]; 75 μM,−3.5
same,CYP27A1 fold change,[5]; 75 μM,−1.3
same,FASN fold change,[5]; 75 μM,−1.9
same,FBP1 fold change,[5]; 75 μM,−1.8
same,FETUB fold change,[5]; 75 μM,−2.0
same,FGA fold change,[5]; 75 μM,−2.1
same,ITIH4 fold change,[5]; 75 μM,−1.9
same,KNG1 fold change,[5]; 75 μM,−2.3
same,NR0B2 (SHP) fold change,[5]; 75 μM,−1.8
same,NR1H3 (LXR) fold change,[5]; 75 μM,−1.8
same,NR1H4 (FXR) fold change,[5]; 75 μM,−1.8
same,PON1 fold change,[5]; 75 μM,−2.0
same,RXRA fold change,[5]; 75 μM,−1.5
same,SCARB1 fold change,[5]; 75 μM,−2.2
same,SDC1 fold change,[5]; 75 μM,−2.0
same,SERPINF2 fold change,[5]; 75 μM,−1.8
same,SLC22A7 fold change,[5]; 75 μM,−2.9
same,SLC51B fold change,[5]; 75 μM,−1.9
same,SULT2A1 fold change,[5]; 75 μM,−2.1
same,ABCB4 fold change,[6]; 75 μM,−2.1
same,ABCB11 fold change,[6]; 75 μM,−1.3
same,ABCC3 fold change,[6]; 75 μM,−1.2
same,ABCG5 fold change,[6]; 75 μM,−1.6
same,ABCG8 fold change,[6]; 75 μM,−2.3
same,CYP8B1 fold change,[6]; 75 μM,−3.4
same,CYP27A1 fold change,[6]; 75 μM,−1.4
same,GCGR fold change,[6]; 75 μM,−1.9
same,IL1B fold change,[6]; 75 μM,−1.2
same,IL1RL1 fold change,[6]; 75 μM,2.3
same,IL1RN fold change,[6]; 75 μM,1.1
same,IRAK2 fold change,[6]; 75 μM,1.6
same,JUN fold change,[6]; 75 μM,1.3
same,NR0B2 fold change,[6]; 75 μM,−1.2
same,NR1H3 fold change,[6]; 75 μM,−1.1
same,NR1H4 fold change,[6]; 75 μM,−1.1
same,PPRC1 fold change,[6]; 75 μM,1.6
same,RXRA fold change,[6]; 75 μM,−1.6
same,SLC22A7 fold change,[6]; 75 μM,−2.9
same,TNFRSF1B fold change,[6]; 75 μM,−1.5
